Data taken from US7700741B2, “High affinity anti-N1,N12-diacetylspermine monoclonal antibody” (Trans Genic Inc., priority 2005, dated 2010).

Legend:
[1] = tested on: anti-DiAcSpm polyclonal antibody; assay: Evaluation of immunizing antigen lots (inhibition of polyclonal antibody reaction with solid-phased antigen); assay type: binding, rabbit; settings: six lots compared; absorbance at 492 nm; FIG. 1
Experimental: The antigen was evaluated using DiAcSpm specific polyclonal antibody. Six lots of the antigen prepared in (1) above were examined on their activities to inhibit the reaction of anti-DiAcSpm polyclonal antibody with solid-phased AcSpm-HMC-AcSpm, by the method described later in Experimental Example 1.
AcSpm-HMC-peptide diluted with PBS (pH 7.0) to 0.07 μg/ml was added to 96-well microtiter plates at 50 μl/well as an antigen to be solid-phased, and left at 25° C. for 1.5 hours. Subsequently, the plates were washed with 0.05% Tween20-containing PBS (pH 7.0) (PBST) three times. Then, 0.5% gelatin-containing PBST (blocking solution) was added thereto at 200 μl/well and left at 25° C. for 1 hour. The plates were frozen at −30° C. overnight to freeze the blocking solution for freeze-drying to thereby prepare freeze-dried plates. To each well of dilution plates, 70 μl of 10 μg/ml anti-DiAcSpm polyclonal antibody and 70 μl of each lot of the immunizing antigen AcSpm-GMB-AMS-BSA with serially varied concentration were mixed and added, and left at 25° C. for 1 hour for pre-reaction. Subsequently, to each well of the freeze-dried plates prepared in Experimental Example 1, 300 μl of PBST was added, left at 25° C. for 30 minutes and then re-washed with PBST once. To each well of these plates, 50 μl of the pre-reacted reaction solution was added and left at 25° C. for 1 hour. Then, after washing with PBST three times, 50 μl of 80-fold dilution of HRP-labeled anti-rabbit IgG antibody (Bio-Rad) was added to each well and left at 25° C. for 1 hour. Subsequently, after washing with PBST three times, 100 μl of o-phenylenediamine solution diluted with 0.012% hydrogen peroxide-containing 0.1 M citrate phosphate buffer (pH 5.0) to 0.5 mg/ml was added to each well and left at 25° C. for 9 minutes. Then, absorbances at 492 nm were measured with an ELISA reader.

[2] = tested on: anti-DiAcSpm monoclonal antibody CN647; assay: Crossreactivity test on cloned wells (culture supernatant of CN647 strain); assay type: binding, mouse; settings: all three cloned wells, one designated CN647; FIG. 3
Experimental: Briefly, cells were diluted with 20% FCS-containing RPMI medium to a density of 2.5 cells/ml and added to two 96-well culture plates at 200 μl/well. After five days, single colonies were examined. As a result, a single colony was confirmed in 17 wells out of the two 96-well plates. After 10 days, antibody titers to DiAcSpm were measured in culture supernatants by the method described in Experimental Example 2. Three wells were positive. Cells in these three wells were cultured further and tested for crossreactivities with AcSpm, N^1-AcSpd, N^8-AcSpd, DiAcSpd and AcPut by the method described in Experimental Example 3. […] Thus, antibodies sufficient to achieve the object have been obtained (FIG. 3). One of them was designated “established clone CN647”.
Antibody titers in diluted culture supernatants were measured by the method described in Experimental Example 2. Based on the results, the dilution rate with which the absorbance at 492 nm becomes 1 was selected. To each well of dilution plates, 70 μl of culture supernatant diluted at the dilution rate selected above and 70 μl of DiAcSpm solution with serially varied concentration or a structure analog of DiAcSpm (N^1-AcSpm, N^1-AcSpd, DiAcSpd, or the like) with serially varied concentration were mixed and added, and then left at 25° C. for 1 hour for pre-reaction. Subsequently, to each well of freeze-dried plates prepared in the same manner as in Experimental Example 1, 300 μl of BST was added, left at 25° C. for 30 minutes and re-washed with BST once. To the resultant plates, the pre-reacted reaction solution was added at 50 μl/well and left at 25° C. for 1 hour. Then, after washing with PBST three times, 50 μl of 80-fold dilution of HRP-labeled anti-mouse IgG antibody (KPL) was added to each well and left at 25° C. for 1 hour. […] Then, absorbances at 492 nm were measured with an ELISA reader.

[3] = biological target: anti-DiAcSpm monoclonal antibody; assay: Kit competitive ELISA with solid-phased AcSpm-HMC-peptide, crossreactivities of structure analogs; assay type: binding, mouse; settings: for KiDiAcSpm/Ki"S" (%) . . . (1): 15 ng/ml antibody, 0.07 μg/ml solid-phased antigen; for Crossreactivity (1) × (2) (%): crossreactivity in urine, Ki ratio × urinary ratio
Experimental: As a measuring kit, competitive ELISA using a solid-phased antigen AcSpm-HMC-peptide was performed based on known methods (Hiramatsu, K. et al., J. Biochem., 124, 231-236 (1998)). As the primary antibody, the monoclonal antibody prepared in Example 1 was used. As the secondary antibody, a commercial, goat-derived HRP-labeled anti-mouse IgG antibody (KPL) was used. The concentration of the solid-phased antigen was set at 0.07 μg/ml based on the concentration employed in a kit using anti-DiAcSpm polyclonal antibody. With respect to the concentration of anti-DiAcSpm monoclonal antibody to be used, 15 ng/ml was selected so that 40% of the maximum reaction efficiency (the point at which the absorbance at 492 nm becomes 1) is achieved when the concentration of the solid-phased antigen AcSpm-HMC-peptide is 0.07 μg/ml (FIG. 4). The dilution ratio of the goat-derived HRP-labeled anti-mouse IgG antibody was set at 2,500-fold from experience.
First, under the conditions established in (1) above, crossreactivities of structure analogs of DiAcSpm with DiAcSpm in urine samples were examined. Briefly, the 50% inhibition activity concentrations of DiAcSpm, N^1-AcSpm, DiAcSpd, N^1-AcSpd, N^8-AcSpd and DiAcPut in the kit were examined, and the crossreactivities of other structure analogs with DiAcSpm in urine were calculated. As a result, crossreactivity with N^1-AcSpd (whose crossreactivity is most apprehended) was 1.62%; crossreactivity with AcSpm was 0.54%; crossreactivity with DiAcSpd was 0.002%; crossreactivity with N^8-AcSpd was 0.01%; crossreactivity with AcPut was 0.01%; and the total crossreactivity was 2.17% (Table 2).

[4] = tested on: monoclonal antibodies to DiAcSpm (Fujiwara et al., Japanese Unexamined Patent Publication No. H11-75839); settings: prior-art monoclonal antibodies; cited from earlier work
[5] = tested on: anti-DiAcSpm antibodies in culture supernatants of DiAcSpm positive clones; assay: Crossreactivity test on antibody production positive clones (culture supernatant, competitive ELISA); assay type: binding, mouse
Description: Out the DiAcSpm positive clones obtained above, 51 clones with relatively high antibody titers were selected and tested for crossreactivity with N^1-AcSpd (which is present in urine abundantly and believed to cross-react relatively easy from the results of researches made so far) by the method described later in Experimental Example 3. As a result, with respect to two wells, the 50% reaction inhibition activity of N^1-AcSpd was about 800 times as much as that of DiAcSpm; with respect to one well, the 50% reaction inhibition activity of N^1-AcSpd was 3,000 times as much as that of DiAcSpm; and with respect to the other wells, the 50% reaction inhibition activity of N^1-AcSpd was 0-200 times as much as that of DiAcSpm.
Antibody titers in diluted culture supernatants were measured by the method described in Experimental Example 2. Based on the results, the dilution rate with which the absorbance at 492 nm becomes 1 was selected. To each well of dilution plates, 70 μl of culture supernatant diluted at the dilution rate selected above and 70 μl of DiAcSpm solution with serially varied concentration or a structure analog of DiAcSpm (N^1-AcSpm, N^1-AcSpd, DiAcSpd, or the like) with serially varied concentration were mixed and added, and then left at 25° C. for 1 hour for pre-reaction. Subsequently, to each well of freeze-dried plates prepared in the same manner as in Experimental Example 1, 300 μl of BST was added, left at 25° C. for 30 minutes and re-washed with BST once. To the resultant plates, the pre-reacted reaction solution was added at 50 μl/well and left at 25° C. for 1 hour. Then, after washing with PBST three times, 50 μl of 80-fold dilution of HRP-labeled anti-mouse IgG antibody (KPL) was added to each well and left at 25° C. for 1 hour. Subsequently, after washing with PBST three times, 100 μl of o-phenylenediamine solution diluted with 0.012% hydrogen peroxide-containing 0.1 M citrate phosphate buffer (pH 5.0) to 0.5 mg/ml was added to each well and left at 25° C. for 9 minutes. Then, absorbances at 492 nm were measured with an ELISA reader.

[6] = tested on: monoclonal antibodies to DiAcSpm (Fujiwara et al., Japanese Unexamined Patent Publication No. H11-75839); assay: Prior-art 50% binding inhibition of immunoreaction (Fujiwara et al. antibodies); settings: crossreactivity with DiAcSpm taken as 100; N^1-AcSpd about 25 times DiAcSpm in urine
Description: Recently, Fujiwara et al. prepared monoclonal antibodies to DiAcSpm (Japanese Unexamined Patent Publication No. H11-75839). With these antibodies, 50% binding inhibition activity against immunoreaction with DiAcSpm is only about 100 times as much as 50% binding inhibition activity against immunoreaction with N^1-acetylspermidine (hereinafter expressed as “N^1-AcSpd”) and is only about 20 times as much as 50% binding inhibition activity against immunoreaction with N^1-acetylspermine (hereinafter expressed as “N^1-AcSpm”) which is a monoacetylated form of spermine. Since the amount of N^1-AcSpd in the urine of healthy persons is about 25 times as much as the amount of DiAcSpm therein, the crossreactivity of the above antibody with N^1-AcSpd in the urine of healthy persons is 25 when the crossreactivity of the antibody with DiAcSpm therein is taken as 100. Therefore, the antibody may yield false-positive results. Accordingly, in order to enhance the measuring sensitivity for DiAcSpm, a DiAcSpm-specific monoclonal antibody whose crossreactivities with N^1-AcSpd and N^8-acetylspermidine (hereinafter expressed as “N^8-AcSpd”) are still lower is required.

Compound	KiDiAcSpm/Ki"S" (%) . . . (1) [3] [%]	activity to inhibit the reaction of anti-DiAcSpm polyclonal antibody with solid-phased antigen [1]	50% inhibition activity of DiAcSpm relative to that of the analog [2]	Crossreactivity (1) × (2) (%) [3] [%]	other results
AcSpm-GMB-AMS-BSA [lot No. 1]		highest inhibition activity			
AcSpm-GMB-AMS-BSA [lot No. 6]		highest inhibition activity			
AcSpm-GMB-AMS-BSA [lot No. 5]		comes next			
CC(=O)NCCCCN [AcPut]	0.0001			0.01	

Further lines, with some results ahead:

KiDiAcSpm/Ki"S" (%) . . . (1) [3] [%]	Compound	activity to inhibit the reaction of anti-DiAcSpm polyclonal antibody with solid-phased antigen [1]	50% inhibition activity of DiAcSpm relative to that of the analog [2]	Crossreactivity (1) × (2) (%) [3] [%]	other results
100	CC(=O)NCCCNCCCCNCCCNC(C)=O [DiAcSpm, N^1,N^12-diacetylspermine]		about 100,000 times	100	
0.0008	CC(=O)NCCCCNCCCNC(C)=O [DiAcSpd, N^1,N^8-diacetylspermidine]			0.002	
0.0003	CC(=O)NCCCCNCCCN [N8-AcSpd, N^8-acetylspermidine]			0.01	
1.7072	CC(=O)NCCCNCCCCNCCCN [AcSpm, N^1-acetylspermine]		about 70 times	0.54	50% binding inhibition activity against immunoreaction with DiAcSpm relative to that with the analog [4]: about 20 times
0.0610	CC(=O)NCCCNCCCCN [N1-AcSpd, N^1-acetylspermidine]		about 1,000 times	1.62	50% reaction inhibition activity of N^1-AcSpd relative to that of DiAcSpm ([5]; one well of 51 selected clones): 3,000 times; 50% reaction inhibition activity of N^1-AcSpd relative to that of DiAcSpm ([5]; the other wells of 51 selected clones): 0-200 times; 50% reaction inhibition activity of N^1-AcSpd relative to that of DiAcSpm ([5]; two wells of 51 selected clones): about 800 times; 50% binding inhibition activity against immunoreaction with DiAcSpm relative to that with the analog [4]: about 100 times; crossreactivity of the antibody with the analog in the urine of healthy persons [6]: 25
